Assay results reported in paper PMC3723878 (PLoS ONE, 2013).
Residue numbers refer to the chain shown, from its start.

Columns and labels:
Experiment in all cases: Saturation binding of ^125I-HEAT
[1] = target: T1, human α1A-AR F187A variant (Homo sapiens, UniProt P35348, F187A)
T1 construct: expressed in transfected cells; host or cells: COS-7, transient (calcium phosphate)
T1 sequence (P35348 1-466 F187A): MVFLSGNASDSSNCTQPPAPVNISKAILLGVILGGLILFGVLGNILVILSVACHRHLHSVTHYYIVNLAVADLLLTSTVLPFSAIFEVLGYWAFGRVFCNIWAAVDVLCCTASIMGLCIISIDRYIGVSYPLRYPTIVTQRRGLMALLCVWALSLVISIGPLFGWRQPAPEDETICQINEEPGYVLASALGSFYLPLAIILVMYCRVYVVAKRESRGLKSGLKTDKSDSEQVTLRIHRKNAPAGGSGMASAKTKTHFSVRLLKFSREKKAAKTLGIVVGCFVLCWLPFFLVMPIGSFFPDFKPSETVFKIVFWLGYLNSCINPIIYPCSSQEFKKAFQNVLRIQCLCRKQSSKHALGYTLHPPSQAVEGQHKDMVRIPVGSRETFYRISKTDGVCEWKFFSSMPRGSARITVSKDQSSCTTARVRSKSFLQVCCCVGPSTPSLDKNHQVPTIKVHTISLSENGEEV

[2] = target: T2, human α1A-AR F86A variant (Homo sapiens, UniProt P35348, F86A); settings: F86A (2.64), n = 3–6
T2 construct: expressed in transfected cells; host or cells: COS-7, transient (calcium phosphate)
T2 sequence (P35348 1-466 F86A): T1 sequence (P35348 1-466 F187A) with F86A, A187F

[3] = target: T3, human α1A-AR D106A variant (Homo sapiens, UniProt P35348, D106A)
T3 construct: expressed in transfected cells; host or cells: COS-7, transient (calcium phosphate)
T3 sequence (P35348 1-466 D106A): T1 sequence (P35348 1-466 F187A) with D106A, A187F

O=C1c2ccccc2CCC1CNCCc1ccc(O)c([125I])c1 (centres unmarked) [125I-HEAT]
^125I-HEAT Ratio (loss of affinity relative to WT) ([1]; F187A): 0.22 ^* | ^125I-HEAT pKd ([1]; F187A (5.41), saturation binding, n = 3–6): 10.70±0.01 | ^125I-HEAT pKd [2]: 8.68±0.09 | ^125I-HEAT Ratio (loss of affinity relative to WT) ([3]; D106A): 1.7 | ^125I-HEAT pKd ([3]; D106A (3.32), saturation binding, n = 3–6): 9.82±0.11
